Test results reported in a melting point compilation (Tetko et al.; mined from patent text by program, amines drawn as free bases though some values may be those of a salt).

SMILES	melting point [°C]
NC(=O)C1CCN(C(c2ccccc2)c2ccccc2)CC1	150
Cc1ccc(Sc2ncnc3c(C)csc23)cc1	103 to 107
CC(C)(C)c1cccc(S(=O)(=O)n2c(Cc3ccc(-c4n[nH]c(=O)o4)cc3)cc3cc(C(F)(F)F)ccc32)c1	92
CC(C)Nc1nc2c(Cl)cc(Cl)cc2n1[C@H]1O[C@@H](CO)[C@H](O)[C@@H]1O	212 to 214
CCOP(=O)(O)C(=Nc1ccc(-c2c[nH]cn2)cc1)NC(C)C	235
CC(C)N1C(=O)N=C(SCc2ccccc2)NS1(=O)=O	124 to 130
CCCn1c(OCC2CC2(Cl)Cl)nc2sccc2c1=O (stereo unspecified)	64 to 66
CCCCCC(=O)N(CO)C1N=C(c2ccccc2)c2ccccc2N(C)C1=O (single isomer, unassigned; (+))	154 to 156
COCOc1ccc(C=C2CCCC(=Cc3ccc(OCOC)c(OC)c3)C2=O)cc1OC	73 to 75
N#Cc1ccc(-c2cc3ccccc3[nH]2)cc1	201
Cc1c(NC(=O)CC(C)(C)C)cc2c(c1C)OC(C)(C)C2(O)CCc1ccccc1 (stereo unspecified)	99 to 100
CN1CCN(c2cccc3ccc(OC(=O)c4ccccc4)cc23)CC1	82 to 82.5
C=CCn1cc(C(=O)OCC)c(=O)c2cc(F)c(Cl)cc21	162 to 164
N#Cc1cc(NC(=O)C2CCc3ccccc3C2)ccc1N1CCC(O)CC1 (stereo unspecified)	163 to 165
COc1cc(O)cc(C)c1C=CC(=O)c1ccc(O)cc1	197 to 198
Cc1cccc(-c2n[nH]cc2-c2ccc(F)c(-c3cn[nH]c3)c2)n1	110 to 112
CCOCCc1ccc(OCCN(C(=O)n2cncn2)c2ncnc3sc(CC)cc23)c(C)c1	129 to 131
Cc1ccccc1CNC(=O)c1cc(C)c([N+](=O)[O-])c(C)c1	202 to 203
CCc1cc(=O)n2c3c(cc(C(O)(C(F)(F)F)C(F)(F)F)cc13)CCC2	209 to 210
COC(=O)CCCCC(O)c1ccc2c(c1)CCCC2 (stereo unspecified)	107 to 108
O=C1c2ccccc2COc2c(Br)cccc21	127 to 130
OCCCNc1cc(-n2cccn2)nc(-c2cccs2)n1	130 to 131
CC(c1ccccc1)N1C(=O)NCc2c(-c3ccccc3)cccc21 (stereo unspecified)	136 to 138
CN(CCN(C)[C@H]1CC[C@H](c2ccc3[nH]c(=O)oc3c2)CC1)c1ccccc1	240 to 243
CCOC(=O)C1=CC(=O)C2(C(=O)c3ccc(OC)cc3)OC2O1 (stereo unspecified)	96
Cc1cc(-c2ccc3c(=O)c(C(=O)O)cn(-c4ccc(F)cc4)c3c2)on1	281 to 282

SMILES	melting point [°C]
CCOCc1nc2c(N)nc3ccccc3c2n1CC1CC(c2ccccc2)N(C)O1 (stereo unspecified)	162 to 163
CN(C)c1ccc(C2(c3ccc(N(C)C)cc3N(C)C)OC(=O)c3cc(N(C)C)ccc32)cc1 (stereo unspecified)	182 to 185
NC(=O)c1nc(-c2cccc(O)c2)nc2c1[nH]c(=O)n2C1CCc2ccccc21 (stereo unspecified)	341 to 343
COc1cc2c(c(C(C)(C)C)c1)OC(=O)C2=C1C(=O)Nc2c(Br)cc(Br)cc21	303 to 314
CCCc1nn(CC)c2c(=O)[nH]c(-c3ccccc3OCC)nc12	114 to 115
O=C(c1ccc(-c2ccc(=O)[nH]n2)cc1)N1CCC[C@H]1CN1CCCC1	62 to 66
O=C1CCc2cccc3c2N1C(=O)C3	194 to 197
COCCNC(=O)c1ccc(/C=C/C(=O)O)cc1	205
O=C(NCCCOCCCNC(=O)c1ccc(OC(F)(F)F)cc1)c1ccc(OC(F)(F)F)cc1	118 to 120
CCc1nn2c(-c3ccc(Cl)cc3Cl)cccc2c1N(CC)CC	118 to 121
COC(=O)/C=C/c1ccc(-c2ccc(C)cc2)o1	113 to 115
CC(C)n1nc(O)ccc1=O	148
N#Cc1cccc(-n2c(=O)c(CCCc3ccncc3)cc3cccnc32)c1	202 to 204
Nc1c(-c2ccccc2O)c2ccccc2[nH]c1=O	235 to 237
O=C(Nc1ccc2cn[nH]c2c1)C(=O)N1CCC(Cc2ccc(F)cc2)CC1	162 to 164
CCC(C)(C)NC(Nc1ccc2c(c1)OCO2)=C(C#N)C(=O)C(C)(C)C	161 to 165
CC(C)c1cn2cccc(CO)c2n1	97 to 99
c1cc(CN2CCOCC2)cc(-n2cnc3cc(-c4ccoc4)cnc32)c1	182 to 184
COC(=O)c1ccc(C(=O)N(SSN(C(=O)c2ccc(C(=O)OC)cc2)c2ccccc2)c2ccccc2)cc1	276 to 278
COc1ccc(CC(=O)c2ccc(OCc3ccccc3)cc2O)cc1	97 to 98
O=C(O)c1ccc2cc(OCCOc3ccc4c(CCO)c(C(=O)O)c(CCO)cc4c3)ccc2c1	240
CCOC(=O)C1=C(C)NC(C)=C2C(=O)Oc3cccnc3C12 (stereo unspecified)	100 to 150
CCOC(=O)C1CCc2c([nH]c3ccc(Cl)cc23)C1 (stereo unspecified)	141 to 142
CCOC(=O)CC(C#N)=CC(=CN(C)C)c1ccc(Cl)cc1	168 to 170
O[C@@H]1COC[C@H]1Oc1nc(N2CCNCC2)nc2ccccc12 (relative stereo)	148 to 154
O=c1[nH]c2cc(F)c(NCCCC3CCCOC3)cc2o1 (stereo unspecified)	144 to 145

SMILES	melting point [°C]
COc1ccc(-n2nc(C(O)c3ccccc3)cc2-c2ccc(C)cc2)cc1 (stereo unspecified)	101 to 103
Cc1cnc2[nH]cc(/C=C3\N=C(N4CCCCCC4)NC3=O)c2c1	324 to 326
Cc1cccc(-c2[nH]c(C(C)C)nc2-c2ccc(F)c(-c3c[nH]c(C)n3)c2)n1	230 to 234
Cc1ncnc(O)c1Cl	250 to 251
N#Cc1ccc2c(c1)C1(COc3cc4c(cc31)OCCO4)C(=O)N2Cc1ccccn1 (stereo unspecified)	198 to 199
c1ccc(CSc2nc3ccccc3s2)cc1	39 to 40
CCOc1cc(OCC)nc(N2CCN(Cc3ccc(CNC(C)=O)cc3)CC2)n1	119 to 120
Cc1nn(-c2cc(O)c(Cl)cc2Cl)c(C)c1Cl	172 to 174
CCCc1nn(-c2ccc(C(F)(F)F)cn2)cc1CCCO	96 to 97
CCOC(=O)c1c(C)nc2c(nc(C)n2C)c1Cl	73 to 75
C=C(C)COc1ccc(CC(=O)OC)cc1[N+](=O)[O-]	30 to 31.5
C[C@H]1C[C@H](OC(=O)C(C)(C)Oc2ccc(-c3ccccc3)cc2)CC(C)(C)C1 (relative stereo)	96
NC(=O)CC(=O)c1cn2c3c(cccc13)CCC2	200 to 201
CCCc1c(OCCCCCCc2cccc(CCCCCC(=O)O)c2CCC(=O)O)ccc2c1OCCC2=O	109 to 110
COc1nc(NC(=O)NS(=O)(=O)Oc2ccccc2-c2ccon2)nc(OC)n1	166 to 168
O=C1CC(SCc2ccccc2)C(O)(c2ccccc2)C(SCc2ccccc2)C1 (stereo unspecified)	120
CC(=O)Nc1cc(F)ccc1S(=O)(=O)CC#N	131 to 132
Cc1cccc(CC(=O)O)c1OCCCc1cn(-c2ccc(Br)cn2)nc1C(C)(C)C	62 to 63
COc1cc(C(C)=O)ccc1OCCCN1CCC(c2noc3cc(Cl)ccc23)CC1	116 to 118
O=C(O)CCCCCn1c2ccccc2c(=O)c2cc(Br)ccc21	213
N#Cc1c(OCC2CO2)cccc1[N+](=O)[O-] (stereo unspecified)	131 to 135
CCn1c(=O)n(CCOCCOC)c(=O)c2c1ncn2Cc1ccccc1	140
CC(=NO)c1ccnc(Cl)c1	143
NC(=O)C(c1ccccc1Cl)N1CCc2sccc2C1 (stereo unspecified)	124 to 126
Cc1ccccc1C(Nc1ccncc1)c1ccccc1 (stereo unspecified)	141 to 143
CCCCOc1ccc(S(=O)(=O)C2(C(=O)OCC)CCN(Cc3ccc(F)cc3)CC2)cc1	114

SMILES	melting point [°C]
CC(C)(C)ON(O)C(=O)C(C)(C)CSc1ccc(Oc2ccc(Cl)cn2)cc1	90.8 to 91.9
NC(=O)NC1COCC1c1ccccc1-n1nc(C(F)(F)F)cc1C(F)(F)F (stereo unspecified)	198 to 200
CCOCN(C(=O)CCl)c1c(OC)cccc1OC	95 to 97
CC(C)(CC(O)(Cn1cc(Br)c(=O)c2sccc21)C(F)(F)F)c1cccc2c1OCO2 (stereo unspecified)	197 to 198
O=c1nc(-c2ccnc(Cl)c2)sc2ccccc12	178
CCCCCNS(=O)(=O)NC(=O)/C(C)=C/c1ccc(OC(C)C)cc1Oc1ncc(C(F)(F)F)cc1Cl	138
COC(=O)C(=O)c1ccc(OCCOc2ccc(C)cc2)cc1	105 to 107
CCSc1nsc(NC(=O)N(C)C)c1C#N	198
COC(=O)C(C)(COS(C)(=O)=O)C(=O)c1ccc(Cl)cc1 (stereo unspecified)	85 to 86
Cc1ccc(S(=O)(=O)N(O)S(=O)(=O)c2ccc(C)cc2)cc1	125 to 126
Cc1nc2ccc3c(c2o1)OC(CN1CC=C(c2c[nH]c4ccc(Cl)cc24)CC1)CO3 (stereo unspecified)	144 to 145
O=C(O)c1ccc(CCC(=O)c2ccccc2)cc1	145 to 147
COC(=O)C1=C(C)NC(C)=C(C(=O)OCC=Cc2ccccc2)C1c1cccc([N+](=O)[O-])c1 (stereo unspecified)	143 to 144
COc1ccc(C(=NO)c2ccccc2F)c(O)c1Cl	184 to 186
CCCCCCCCCCCOCCCN=C=O	72 to 78
Cc1nccc(C(=O)O)c1-c1nc(-c2ccc(Cl)cc2)cs1	92 to 94
OC(CCCl)COc1ccc(-c2ccccc2)cc1 (stereo unspecified)	123 to 124
COc1ccc(OCC2CCC(CBr)CC2)c(Cl)c1 (stereo unspecified)	74 to 78
CN1C(=O)C(NC(=O)CC2CCCCC2)N=C(N2CCCCCC2)c2ccccc21 (stereo unspecified)	205 to 207
C=C(C)c1cc(-c2ccc(OCCNS(C)(=O)=O)cc2)n(-c2ccc(OC)nc2)n1	96 to 99
CN1N=C(c2ccc(F)cc2)c2cc3nsnc3cc2CS1(=O)=O	272 to 275
CC(C)[C@H](C[C@H](N=[N+]=[N-])[C@@H]1C[C@@H](C(C)C)C(=O)O1)C(=O)O	56 to 58
Cc1cc(-c2cc(C(F)F)n3ncc(C(=O)Nc4cccc(S(N)(=O)=O)c4)c3n2)ccc1Cl	264
